Measured values reported in US20090232735A1, “USE OF FRUCTOSE-BASED THERAPIES FOR THE TREATMENT OF CANCER” (CEDARS-SINAI MEDICAL CENTER, priority 2005, published 2009).

Columns and labels:
Type in all cases: cell-based, human
[1] = test system: AP-1 activation in PANC-1 cells; assay: AP-1 probe binding assay, PANC-1 nuclear extracts; details: PANC-1, 5.5 mM fructose, 48 h
Procedure: FIG. 24 depicts luciferase activity of PANC-1 cells and primary culture of surgically resected pancreatic tumor cells in accordance with an embodiment of the present invention. PANC-1 pancreatic cancer cells and a primary culture of a surgically resected pancreatic tumor were incubated in 2 mM glucose, 5.5 mM glucose or 5.5 mM fructose for 48 h, after which nuclear extracts were incubated with a biotinylated AP-1 probe, and detected by an antibody-linked colorimetric method. *, p<0.01
In separate experiments PANC-1 cells, and primary cultures of surgically resected pancreatic tumors were incubated in 2 mM glucose, or 5.5 mM glucose or 5.5 mM fructose for 48 h, after which nuclear extracts were incubated with a biotinylated AP-1 probe in binding buffer. AP-1/AP1 probe complexes were next conjugated to a streptavidin-coated assay plate and detected using an AP-1 specific antibody, followed by binding of a horseradish-peroxidase conjugated secondary antibody, and detection by a colorimetric reagent.

transketolase (TKK) = assay: Transketolase expression by Western blot in PANC-1 cells; details: PANC-1, 5.5 mM fructose, 24 h and 48 h
Procedure: FIG. 33 depicts Western blot analysis of transketolase expression in pancreatic cancer PANC-1 cells following incubation in 2 mM glucose (lanes 1 & 4), 5.5 mM glucose (lanes 2 & 5), and 5.5 mM fructose for 24 h, and 48 h, respectively, in accordance with an embodiment of the present invention. Quantitation of TKK protein levels is depicted in the lower panel.
The inventors believe that fructose-treatment of pancreatic cancer cells led to an increase in TKK-driven nucleic acid synthesis, and thus fructose-treatment would result in an increase in either PANC-1 TKK expression and/or activity in comparison to equivalent glucose concentrations. Western blot analysis on protein lysates derived from fructose-, and glucose-treated PANC-1 cells were performed (5.5 mM fructose, and glucose for 24, and 48 h as per previous protocol) using a specific TKK antibody, and compared TKK expression in the fructose-, and glucose-treated PANC-1 cells. […] After gentle mixing the absorbance of the mixture was measured at 10 min intervals for 2 h at 340 nm. Transketolase activity was then derived from the difference in absorbance at 10, and 80 minutes, and expressed as nmol/min/million cells. […] Pancreatic cancer proliferation rates were then measured using the MTS assay (FIG. 35).

[2] = test system: uric acid production in PANC-1 cells; assay: Uricase activity / uric acid production in PANC-1 conditioned medium; details: 5.5 mM fructose
Procedure: FIG. 32 depicts uric acid productionin PANC-1 cells in accordance with an embodiment of the present invention. Uric acid production in pancreatic cancer PANC-1 cells following incubation in 2 mM glucose, 5.5 mM glucose, and 5.5 mM fructose for 24 h, 48, 72, and 96 h respectively, p<0.01 5.5 mM fructose versus 5.5 mM glucose.
Based on the metabolomic studies which led the inventors to believe that fructose was metabolized in pancreatic cancer cells in large part to generate nucleic acids, the inventors devised a series of experiments to examine nucleic acid synthesis in the pancreatic cancer cells following either glucose or fructose-treatment. PANC-1 cells were incubated as before in 5.5 mM glucose or fructose for 24 h, following an ELISA-based fluorimetric assay (Amplex Red Uric acid uricase assay kit, Invitrogen) was employed to measure uricase activity in conditioned medium derived from the pancreatic cancer cells (Shi Y, Evans J E, Rock K L. Molecular identification of a danger signal that alerts the immune system to dying cells Nature 425, 516-21, 2003). Uricase activity correlates highly with uric acid production, a purine by-product of nucleic acid synthesis. […] Fluoresence was measured in a fluorescence microplate reader using excitation at 530 nm and detection at 590 nm, and the assay can detect levels as low as 100 nM uric acid.

Structure (SMILES): O=C(CO)[C@@H](O)[C@H](O)[C@H](O)CO [fructose]
- AP-1 luciferase reporter activity higher than in 5.5 mM glucose [1]: approximately 40%
- TKK levels higher than 5.5 mM glucose-treated cells (transketolase (TKK)): ~2 fold
- uricase activity higher than glucose-treated cells ([2]; 96 h): ~20%
- uricase activity higher than glucose-treated cells ([2]; 120 h): ~50%
